Source: US20240308995A1, “O-GLYCOPROTEIN-2-ACETAMIDO-2-DEOXY-3-D-GLUCOPYRANOSIDASE INHIBITORS” (BIOGEN MA INC., priority 2018, published 2024)
pIC50: −log10 of the molar value. Structures can show the parent of a compound that is named as a salt.

Legend:
[1] = target: OGA (S400 O-GLCNAC), HEK-293T cells transfected with Tau-V5 (Homo sapiens (Human), UniProt O60502); test: Cellular OGA-Tau MSD Assay; format: cell-based
Protocol: HEK-293T cells were transfected with […] and Tau-V5 plasmids using Lipofectamine and grown overnight. Next day, the cells were collected and re-plated at 1×10^5 cells per well in 96 well plates. Cells were incubated for 4 hr at 37° C., before compounds were added at 1 uM, with 3-fold dilutions in a 10-point titration. Cell plates were incubated with compounds overnight at 37° C. The next day media was removed from wells by gentle aspiration and 120 ul of 1× Cell Lysis buffer mixed with protease and phosphatase cocktail added to each well. A freeze thaw was performed at -80° C., then mixed before transferring 50 ul to MSD plates coated with V5-tag antibody to capture Tau. MSD Plates were incubated overnight at 4° C., on a plate shaker. The following day, plates were washed and incubated with Tau-[…]-GlcNAc antibody for 2 hr and then developed with rabbit Sulfo-tag antibody. Final read out was carried out on an MSD 600 reader. The data was analyzed using Graph Pad or Genedata, the data was normalized and % activity versus log of compound concentration was plotted. The IC50 values were obtained from a 4 parameter fit.

[2] = target: Recombinant full length human OGA enzyme (Homo sapiens (Human), UniProt O60502); test: OGA Enzyme Inhibition Biochemical Assay
Protocol: Recombinant full length human OGA enzyme was purchased from Origene. 4-MUGlcNAc substrate was purchased from Sigma. All other reagents were purchased from Sigma or Fisher. Assay buffer consists of the McIlvaine buffer system, pH 6.4 (0.2M Na2HPO4 mixed with 0.1M citric acid) and 0.01% BSA. […] Reactions were incubated for 90 minutes at room temperature and quenched with 40 μl of 3M glycine, pH 10 and read on a Perkin Elmer Envision plate reader (Ex: 355 nm/Em: 460 nm). Compounds were tested with a 10-point dose-response starting from 20 μM with a 4-fold dilution. Data was fit using GraphPad Prism using a 4-parameter fit with variable slope.

[3] = HEK-293T cells, Tau-S400-GlcNAc MSD readout
[4] = 1 nM OGA, 100 μM 4-MUGlcNAc, pH 6.4
[5] = repeated assay, value marked with asterisk (*)

Sequence of Recombinant full length human OGA enzyme (O60502 whole entry): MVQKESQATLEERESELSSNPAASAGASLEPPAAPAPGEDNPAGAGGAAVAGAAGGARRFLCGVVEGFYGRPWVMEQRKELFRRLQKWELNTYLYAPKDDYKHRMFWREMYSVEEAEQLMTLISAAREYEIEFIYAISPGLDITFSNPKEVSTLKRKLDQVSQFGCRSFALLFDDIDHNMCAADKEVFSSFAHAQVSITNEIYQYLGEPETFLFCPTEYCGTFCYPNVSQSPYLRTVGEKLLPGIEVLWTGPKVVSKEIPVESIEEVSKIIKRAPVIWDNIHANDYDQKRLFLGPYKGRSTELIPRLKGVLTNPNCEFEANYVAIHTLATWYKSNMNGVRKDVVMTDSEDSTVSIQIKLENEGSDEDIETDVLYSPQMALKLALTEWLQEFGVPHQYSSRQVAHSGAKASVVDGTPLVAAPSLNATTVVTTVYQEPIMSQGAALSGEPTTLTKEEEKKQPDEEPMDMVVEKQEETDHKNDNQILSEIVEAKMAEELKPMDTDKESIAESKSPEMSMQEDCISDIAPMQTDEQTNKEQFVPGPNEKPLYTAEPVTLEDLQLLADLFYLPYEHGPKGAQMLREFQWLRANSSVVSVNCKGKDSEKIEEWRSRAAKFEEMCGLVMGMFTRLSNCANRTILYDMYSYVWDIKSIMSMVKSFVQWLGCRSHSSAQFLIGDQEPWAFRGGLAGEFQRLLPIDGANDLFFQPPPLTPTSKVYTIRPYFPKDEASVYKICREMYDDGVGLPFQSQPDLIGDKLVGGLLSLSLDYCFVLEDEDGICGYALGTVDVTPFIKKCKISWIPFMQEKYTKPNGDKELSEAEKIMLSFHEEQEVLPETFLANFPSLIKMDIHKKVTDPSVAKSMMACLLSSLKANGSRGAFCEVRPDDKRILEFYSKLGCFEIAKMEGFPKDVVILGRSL
Sequence of OGA (S400 O-GLCNAC), HEK-293T cells transfected with Tau-V5 (O60502 whole entry): as above

| SMILES | pIC50 [1, 3] | pIC50 [2, 4] | pIC50 [1, 5] | pIC50 [2, 5] |
| --- | --- | --- | --- | --- |
| CC(=O)Nc1nc(F)c(CN2C[C@H](Oc3cc(OC4CN(C)C4)ncn3)C[C@@H]2C)s1 [Example 1-141, N-(4-fluoro-5-(((2S,4R)-2-methyl-4-((6-((1-methylazetidin-3-yl)oxy)pyrimidin-4-yl)oxy)pyrrolidin-1-yl)methyl)thiazol-2-yl)acetamide] | 8.15 | 9.00 |  |  |
| CC(=O)Nc1nc(F)c(CN2C[C@H](Oc3ccc(N4CCOCC4)cn3)C[C@@H]2C)s1 [Example 1-146, N-(4-fluoro-5-(((2S,4R)-2-methyl-4-((5-morpholinopyridin-2-yl)oxy)pyrrolidin-1-yl)methyl)thiazol-2-yl)acetamide] |  | > 9.00 |  |  |
| CC(=O)Nc1ncc(CN2C[C@H](Oc3cc(OC4CCC4)ncn3)C[C@@H]2C)s1 [Example 1-121, N-(5-(((2S,4R)-4-((6-cyclobutoxypyrimidin-4-yl)oxy)-2-methylpyrrolidin-1-yl)methyl)thiazol-2-yl)acetamide] | 8.52 | > 9.00 |  |  |
| COc1cc(O[C@H]2C[C@H](C)N(Cc3sc(NC(C)=O)nc3F)C2)ncn1 [Example 1-30, N-(4-fluoro-5-(((2S,4S)-4-((6-methoxypyrimidin-4-yl)oxy)-2-methylpyrrolidin-1-yl)methyl)thiazol-2-yl)acetamide] | 7.68 | 7.82 |  |  |
| COCCOc1cnc(O[C@@H]2C[C@H](C)N(Cc3sc(NC(C)=O)nc3F)C2)cn1 [Example 1-144, N-(4-fluoro-5-(((2S,4R)-4-((5-(2-methoxyethoxy)pyrazin-2-yl)oxy)-2-methylpyrrolidin-1-yl)methyl)thiazol-2-yl)acetamide] |  | > 9.00 |  |  |
| COc1cc(O[C@H]2C[C@@H](C)N(Cc3sc(NC(C)=O)nc3F)C2)ncn1 [Example 1-31, N-(4-fluoro-5-(((2R,4S)-4-((6-methoxypyrimidin-4-yl)oxy)-2-methylpyrrolidin-1-yl)methyl)thiazol-2-yl)acetamide] | < 6.00 | 5.54 |  |  |
| [2H]C(c1sc(NC(C)=O)nc1F)N1C[C@H](Oc2cc(OC)ncn2)C[C@@H]1C (single isomer, unassigned) [Example 1-159] | 9.00 | > 9.00 |  |  |
| COc1cncnc1O[C@@H]1C[C@H](C)N(Cc2cnc(NC(C)=O)s2)C1 [Example 1-74] | 7.89 | 8.19 |  |  |
| CC(=O)Nc1ncc(CN2C[C@H](Oc3cc(C(F)(F)F)ncn3)C[C@@H]2C)s1 [Example 1-79, N-(5-(((2S,4R)-2-methyl-4-((6-(trifluoromethyl)pyrimidin-4-yl)oxy)pyrrolidin-1-yl)methyl)thiazol-2-yl)acetamide] | 7.39 | 7.96 |  |  |
| CC(=O)Nc1nc(F)c(CN2C[C@H](Oc3cc(N4CC(F)(F)C4)ncn3)C[C@@H]2C)s1 [Example 1-26, N-(5-(((2S,4R)-4-((6-(3,3-difluoroazetidin-1-yl)pyrimidin-4-yl)oxy)-2-methylpyrrolidin-1-yl)methyl)-4-fluorothiazol-2-yl)acetamide] | 9.00 | > 9.00 |  |  |
| COc1ccc(O[C@@H]2C[C@H](C)N(Cc3sc(NC(C)=O)nc3F)C2)nn1 [Example 1-84, N-(4-fluoro-5-(((2S,4R)-4-((6-methoxypyridazin-3-yl)oxy)-2-methylpyrrolidin-1-yl)methyl)thiazol-2-yl)acetamide] | 9.00 | > 9.00 |  |  |
| CC(=O)Nc1ncc(CN2C[C@H](Oc3cc(=O)n(C)cn3)C[C@@H]2C)s1 [Example 1-70, N-(5-(((2S,4R)-2-methyl-4-((1-methyl-6-oxo-1,6-dihydropyrimidin-4-yl)oxy)pyrrolidin-1-yl)methyl)thiazol-2-yl)acetamide] | 8.30 |  |  |  |
| COc1ncnc(O[C@@H]2C[C@H](C)N(Cc3cnc(NC(C)=O)s3)C2)c1F [Example 1-19, N-(5-(((2S,4R)-4-((5-fluoro-6-methoxypyrimidin-4-yl)oxy)-2-methylpyrrolidin-1-yl)methyl)thiazol-2-yl)acetamide] |  | 8.92 | 8.22 |  |
| CC(=O)Nc1nc(F)c(CN2C[C@H](Oc3cc(N4CCC4)ncn3)C[C@@H]2C)s1 [Example 1-24, N-(5-(((2S,4R)-4-((6-(azetidin-1-yl)pyrimidin-4-yl)oxy)-2-methylpyrrolidin-1-yl)methyl)-4-fluorothiazol-2-yl)acetamide] | 9.00 | > 9.00 |  |  |
| CC(=O)Nc1nc(F)c(CN2C[C@H](Oc3cc(C)c(F)cn3)C[C@@H]2C)s1 [Example 1-117, N-(4-fluoro-5-(((2S,4R)-4-((5-fluoro-4-methylpyridin-2-yl)oxy)-2-methylpyrrolidin-1-yl)methyl)thiazol-2-yl)acetamide] |  | > 9.00 |  |  |
| COc1cc(O[C@@H]2C[C@H](C)N(Cc3sc(NC(C)=O)nc3F)C2)ccn1 [Example 1-100, N-(4-fluoro-5-(((2S,4R)-4-((2-methoxypyridin-4-yl)oxy)-2-methylpyrrolidin-1-yl)methyl)thiazol-2-yl)acetamide] | 9.00 | > 9.00 |  |  |
| CC(=O)Nc1ncc(CN2C[C@H](Oc3ccc(F)cn3)CC[C@@H]2C)s1 [Example 1-4, N-(5-(((2S,5R)-5-((5-fluoropyridin-2-yl)oxy)-2-methylpiperidin-1-yl)methyl)thiazol-2-yl)acetamide] | 8.22 | 8.92 |  |  |
| [2H][C@@]1(Oc2cc(OC)ncn2)C[C@H](C)N(Cc2sc(NC(C)=O)nc2F)C1 (single isomer, unassigned) [Example 1-165] | 8.70 | > 9.00 |  |  |
| [2H]C([2H])([2H])C(=O)Nc1nc(F)c(CN2C[C@H](Oc3cc(OC)ncn3)C[C@@H]2C)s1 (single isomer, unassigned) [Example 1-157, trifluoroacetate salt] | 8.52 | > 9.00 |  |  |
| COc1cc(O[C@@H]2C[C@H](C)N(Cc3sc(NC(C)=O)nc3F)C2)ncn1 [Example 1-22, N-(4-Fluoro-5-(((2S,4R)-4-((6-methoxypyrimidin-4-yl)oxy)-2-methylpyrrolidin-1-yl)methyl)thiazol-2-yl)acetamide] | 8.70 | > 9.00 |  |  |
| CNc1cc(O[C@@H]2C[C@H](C)N(Cc3cnc(NC(C)=O)s3)C2)ncn1 [Example 1-137, N-(5-(((2S,4R)-2-methyl-4-((6-(methylamino)pyrimidin-4-yl)oxy)pyrrolidin-1-yl)methyl)thiazol-2-yl)acetamide] | 8.70 | > 9.00 |  |  |
| COc1cc(O[C@H]2CCN(Cc3sc(NC(C)=O)nc3F)C2)ncn1 [Example 1-27, (S)—N-(4-fluoro-5-((3-((6-methoxypyrimidin-4-yl)oxy)pyrrolidin-1-yl)methyl)thiazol-2-yl)acetamide] |  | 6.07 |  |  |
| [2H][C@]1(Oc2cc(OC)ncn2)C[C@H](C)N(Cc2sc(NC(C)=O)nc2F)C1 [Example 1-166, N-(4-fluoro-5-(((2S,4S)-4-((6-methoxypyrimidin-4-yl)oxy)-2-methylpyrrolidin-1-yl-4-d)methyl)thiazol-2-yl)acetamide] | 7.96 | 7.89 |  |  |
| [2H]C([2H])([2H])Oc1cc(O[C@@H]2C[C@H](C)N(Cc3sc(NC(C)=O)nc3F)C2)ncn1 (single isomer, unassigned) [Example 1-155] | 8.70 | > 9.00 |  |  |
| COCCN(C)c1ccnc(O[C@@H]2C[C@H](C)N(Cc3sc(NC(C)=O)nc3F)C2)c1 [Example 1-145, N-(4-fluoro-5-(((2S,4R)-4-((4-((2-methoxyethyl) (methyl)amino)pyridin-2-yl)oxy)-2-methylpyrrolidin-1-yl)methyl)thiazol-2-yl)acetamide] |  | > 9.00 |  |  |
| CC(=O)Nc1ncc(CN2C[C@H](Oc3cc(C)nc(C)c3)CC[C@@H]2C)s1 [Example 1-67, N-(5-(((2S,5R)-5-((2,6-dimethylpyridin-4-yl)oxy)-2-methylpiperidin-1-yl)methyl)thiazol-2-yl)acetamide] | 8.52 | > 9.00 |  |  |
| CC(=O)Nc1ncc(CN2C[C@@H](Oc3ccc(F)cn3)CC[C@@H]2C)s1 [Example 1-5, N-(5-(((2S,5S)-5-((5-fluoropyridin-2-yl)oxy)-2-methylpiperidin-1-yl)methyl)thiazol-2-yl)acetamide] | 8.40 | 8.80 |  |  |
| CC(=O)Nc1ncc(CN2CC[C@H](Oc3ccc(F)cn3)C2)s1 [Example 1-7, (S)—N-(5-((3-((5-fluoropyridin-2-yl)oxy)pyrrolidin-1-yl)methyl)thiazol-2-yl)acetamide] |  | < 6.00 |  | 5.70 |
| COCCOc1ccnc(O[C@@H]2C[C@H](C)N(Cc3sc(NC(C)=O)nc3F)C2)c1 [Example 1-147, N-(4-fluoro-5-(((2S,4R)-4-((4-(2-methoxyethoxy)pyridin-2-yl)oxy)-2-methylpyrrolidin-1-yl)methyl)thiazol-2-yl)acetamide] |  | > 9.00 |  |  |
| COc1cc(O[C@H]2CCN(Cc3cnc(NC(C)=O)s3)C2)ncn1 [Example 1-36, (S)—N-(5-((3-((6-methoxypyrimidin-4-yl)oxy)pyrrolidin-1-yl)methyl)thiazol-2-yl)acetamide] |  | 5.77 |  |  |
